Biological target: T1, human JAK1 (a.a. 837-1142) (Homo sapiens, UniProt P23458)
T1 construct: human JAK1 (a.a. 837-1142); His tag (N); made in house; host or cells: insect cells (baculovirus)
Experiment: In vitro JAK kinase assay (HTRF, phosphorylation of biotinylated peptide), JAK1
Format: biochemical
Settings: measured at 1 mM ATP
Method: The compound of Formula I herein was tested for inhibitory activity of JAK targets according to the following in vitro assay described in Park et al., Analytical Biochemistry 1999, 269, 94-104. The catalytic domains of human JAK1 (a.a. 837-1142) and JAK2 (a.a. 828-1132) with an N-terminal His tag were expressed using baculovirus in insect cells and purified. The catalytic activity of JAK1 and JAK2 was assayed by measuring the phosphorylation of a biotinylated peptide. The phosphorylated peptide was detected by homogenous time resolved fluorescence (HTRF). IC50s of compounds were measured for each kinase in the 40 microL reactions that contain the enzyme, ATP and 500 nM peptide in 50 mM Tris (pH 7.8) buffer with 100 mM NaCl, 5 mM DTT, and 0.1 mg/mL (0.01%) BSA. For the 1 mM IC50 measurements, ATP concentration in the reactions was 1 mM. Reactions were carried out at room temperature for 1 hr and then stopped with 20 μL 45 mM EDTA, 300 nM SA-APC, 6 nM Eu-Py20 in assay buffer (Perkin Elmer, Boston, Mass.). Binding to the Europium labeled antibody took place for 40 minutes and HTRF signal was measured on a Fusion plate reader (Perkin Elmer, Boston, Mass.).

T1 sequence (P23458 849-1154): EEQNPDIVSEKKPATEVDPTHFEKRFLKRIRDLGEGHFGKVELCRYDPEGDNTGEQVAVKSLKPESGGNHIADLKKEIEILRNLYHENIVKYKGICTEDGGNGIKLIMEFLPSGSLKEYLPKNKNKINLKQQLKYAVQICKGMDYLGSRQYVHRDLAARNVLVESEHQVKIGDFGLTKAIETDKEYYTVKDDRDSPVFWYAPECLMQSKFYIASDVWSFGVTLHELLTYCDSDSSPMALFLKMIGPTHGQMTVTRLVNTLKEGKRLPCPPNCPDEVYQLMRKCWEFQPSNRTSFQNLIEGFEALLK

N#CCC1(n2cc(-c3ncnc4[nH]ccc34)cn2)CN(C2CCN(C(=O)c3ccnc(C(F)(F)F)c3F)CC2)C1 [Example 1, {1-{1-[3-fluoro-2-(trifluoromethyl)isonicotinoyl]piperidin-4-yl}-3-[4-(7H-pyrrolo[2,3-d]pyrimidin-4-yl)-1H-pyrazol-1-yl]azetidin-3-yl}acetonitrile]
IC50: ≤ 5 nM

Reference: patent US9718834B2, “Processes and intermediates for making a JAK inhibitor” (Incyte Corporation, priority 2011, dated 2017)
